From paper PMC12559995 (RSC Advances, 2025) come the findings set out here.

A short description of assay [1]: DPPH free radical scavenging assay. The conditions noted are these: read-out: DPPH IC50; 0.1 mM DPPH, 30 min, 517 nm; mean ± SD. In general terms: Loss of DPPH colour is used to gauge radical scavenging.
Assay [2] concerns MCF-7 (human breast adenocarcinoma) cells. Nature of the assay: Cytotoxicity assay. It counts as cell-based. The following applies: MCF7, 48 h, read-out: IC50 (MCF-7).
Assay [3] has as its system HEK-293 (normal human embryonic kidney) cells. The experiment in a line: Cytotoxicity assay. Type of assay: cell-based. The conditions noted are these: HEK293, 48 h, read-out: IC50 (HEK-293).
The test system of assay [4] is Plasmodium falciparum 3D7. The experiment in a line: Antimalarial assay. Type of assay: cell-based.

SMILES strings stand for the structures.

Usually IC50 stands for the concentration that inhibits the measured activity by half. `O=C1O[C@H]([C@@H](O)CO)C(O)=C1O` [Ascorbic acid, reference compound]: the IC50 in assay [1] was 5.21 ± 0.06 µM.

Turning to `CC(=NNC(=S)NN=C(C(=NO)c1ccccc1)c1ccccc1)c1ccccc1C` [HBMT-MA7, N'-[2-(Hydroxyimino)-1,2-diphenylethylidene]-2-[1-(o-tolyl)ethylidene]hydrazine-1-carbothiohydrazide], the half-maximal inhibitory concentration (IC50) in assay [2] was 29.7 ± 1 µM; in assay [1], 10.5 ± 0.19 µM; in assay [3], 68.2 ± 1.8 µM; in assay [4] (Plasmodium falciparum, 3D7, 72 h, read-out: Antimalarial IC50) it was 2.91 ± 0.14 µM. Besides, the “Selectivity index (HEK/IC50)” value in assay [4] (SI = IC50 (HEK-293)/IC50 (antimalarial)) turned out to be 23.4.
